# In PubChem BioAssay (NCI):
#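 Results reflect a 48-hour exposure of cells in 96-well plates to compound at five concentrations. TGI: concentration producing complete growth inhibition.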
# Tests used:
# Assay in all cases: inhibition of tumour cell growth, NCI panel, 48 h
# SW-620 colon = system: SW-620 colon
# DU-145 prostate = system: DU-145 prostate
# SK-MEL-28 melanoma = system: SK-MEL-28 melanoma
# NCI-H522 lung = system: NCI-H522 lung
# HCT-116 colon = system: HCT-116 colon
# HOP-62 NSCLC = system: HOP-62 NSCLC
# SNB-75 CNS = system: SNB-75 CNS
# MDA-N = system: MDA-N
# UACC-257 melanoma = system: UACC-257 melanoma
# OVCAR-4 ovarian = system: OVCAR-4 ovarian
# NCI-H23 lung = system: NCI-H23 lung
# MCF7 breast = system: MCF7 breast
# K-562 leukemia = system: K-562 leukemia
# HL-60(TB) leukemia = system: HL-60(TB) leukemia
# SK-MEL-2 melanoma = system: SK-MEL-2 melanoma
# KM12 colon = system: KM12 colon
# NCI/ADR-RES ovarian = system: NCI/ADR-RES ovarian
# A549 NSCLC = system: A549 NSCLC
# MDA-MB-435 = system: MDA-MB-435
# NCI-H460 lung = system: NCI-H460 lung
# SK-OV-3 ovarian = system: SK-OV-3 ovarian
# SF-539 CNS = system: SF-539 CNS
# SN12C renal = system: SN12C renal
# RPMI-8226 leukemia = system: RPMI-8226 leukemia
# OVCAR-8 ovarian = system: OVCAR-8 ovarian
# UO-31 renal = system: UO-31 renal
# SF-295 CNS = system: SF-295 CNS
# ACHN renal = system: ACHN renal
# TK-10 renal = system: TK-10 renal
# SK-MEL-5 melanoma = system: SK-MEL-5 melanoma
# IGROV1 ovarian = system: IGROV1 ovarian
# COLO 205 colon = system: COLO 205 colon
# HS 578T breast = system: HS 578T breast
# 786-0 renal = system: 786-0 renal
# MALME-3M melanoma = system: MALME-3M melanoma
# MOLT-4 leukemia = system: MOLT-4 leukemia
# T-47D breast = system: T-47D breast
# SF-268 CNS = system: SF-268 CNS
# HCC-2998 colon = system: HCC-2998 colon
# CAKI-1 renal = system: CAKI-1 renal
# NCI-H226 lung = system: NCI-H226 lung
# OVCAR-3 ovarian = system: OVCAR-3 ovarian
# U251 CNS = system: U251 CNS
# CCRF-CEM leukemia = system: CCRF-CEM leukemia
# LOX IMVI melanoma = system: LOX IMVI melanoma
# UACC-62 melanoma = system: UACC-62 melanoma
# OVCAR-5 ovarian = system: OVCAR-5 ovarian
# HT29 colon = system: HT29 colon
# BT-549 breast = system: BT-549 breast
# PC-3 prostate = system: PC-3 prostate
# MDA-MB-231 breast = system: MDA-MB-231 breast
# HCT-15 colon = system: HCT-15 colon
# M14 melanoma = system: M14 melanoma
# EKVX NSCLC = system: EKVX NSCLC
# RXF 393 renal = system: RXF 393 renal
# SNB-19 CNS = system: SNB-19 CNS
smiles,measurement,setting,value
CC(=O)O[C@H]1CC[C@H]2[C@@H]3CCC4=C/C(=N/OCCN(C)C)CC[C@]4(C)[C@H]3CC[C@]12C,TGI,SW-620 colon,23.9 µM
same,TGI,DU-145 prostate,31 µM
same,TGI,SK-MEL-28 melanoma,27.8 µM
same,TGI,NCI-H522 lung,22.7 µM
same,TGI,HCT-116 colon,16 µM
same,TGI,HOP-62 NSCLC,27.5 µM
same,TGI,SNB-75 CNS,19.1 µM
same,TGI,MDA-N,14.4 µM
same,TGI,UACC-257 melanoma,21.1 µM
same,TGI,OVCAR-4 ovarian,23.5 µM
same,TGI,NCI-H23 lung,25.6 µM
same,TGI,MCF7 breast,17.9 µM
same,TGI,K-562 leukemia,> 21.2 µM
same,TGI,HL-60(TB) leukemia,3.68 µM
same,TGI,SK-MEL-2 melanoma,26.9 µM
same,TGI,KM12 colon,18.9 µM
same,TGI,NCI/ADR-RES ovarian,27.8 µM
same,TGI,A549 NSCLC,25.6 µM
same,TGI,MDA-MB-435,6.42 µM
same,TGI,NCI-H460 lung,20.4 µM
same,TGI,SK-OV-3 ovarian,24.6 µM
same,TGI,SF-539 CNS,7.28 µM
same,TGI,SN12C renal,33.7 µM
same,TGI,RPMI-8226 leukemia,6.27 µM
same,TGI,OVCAR-8 ovarian,28.1 µM
same,TGI,UO-31 renal,28.1 µM
same,TGI,SF-295 CNS,17.5 µM
same,TGI,ACHN renal,26.2 µM
same,TGI,TK-10 renal,27 µM
same,TGI,SK-MEL-5 melanoma,9.62 µM
same,TGI,IGROV1 ovarian,26.2 µM
same,TGI,COLO 205 colon,8.18 µM
same,TGI,HS 578T breast,34.1 µM
same,TGI,786-0 renal,22.8 µM
same,TGI,MALME-3M melanoma,28.6 µM
same,TGI,MOLT-4 leukemia,13 µM
same,TGI,T-47D breast,19.5 µM
same,TGI,SF-268 CNS,27.5 µM
same,TGI,HCC-2998 colon,19 µM
same,TGI,CAKI-1 renal,27.2 µM
same,TGI,NCI-H226 lung,15.7 µM
same,TGI,OVCAR-3 ovarian,26.7 µM
same,TGI,U251 CNS,26.4 µM
same,TGI,CCRF-CEM leukemia,10.1 µM
same,TGI,LOX IMVI melanoma,11 µM
same,TGI,UACC-62 melanoma,15.4 µM
same,TGI,OVCAR-5 ovarian,31.9 µM
same,TGI,HT29 colon,6.8 µM
same,TGI,BT-549 breast,27.2 µM
same,TGI,PC-3 prostate,27.3 µM
same,TGI,MDA-MB-231 breast,39.5 µM
same,TGI,HCT-15 colon,12.8 µM
same,TGI,M14 melanoma,10.1 µM
same,TGI,EKVX NSCLC,29 µM
same,TGI,RXF 393 renal,27.8 µM
same,TGI,SNB-19 CNS,22.4 µM
